Patent US20080033026A1, “Antimicrobial compositions, methods and systems” (priority 2006, published 2008)

What was measured:
[1] = test system: all organisms tested in Tables 15-17 with the exception of Serratia marcescens; experiment: Growth inhibition in MRS medium at various pH levels, organisms of Tables 15-17 except Serratia marcescens; type: cell-based
Protocol: (§1) Efficacy of potassium salts of 9-DA was tested at various pH levels against the following: Serratia marcescens ATCC 990, and Bacillus cereus ATCC 14579.
(§2) Stock cultures of each organism were transferred into MRS liquid medium. MRS medium (Difco 288130) was purchased from Becton, Dickinson and Company, Sparks, Md.
(§3) The efficacy of potassium salts of 9-DA (K-9-DA) was tested at different concentrations and pH levels, including 6.75 (unadjusted), 7.5, and 8.5.
The selected organisms were incubated overnight in 5 ml of MRS medium at 35° C. and 250 rpm. MRS media with K-9-DA were prepared, along with a control of straight media (no antimicrobial added). The antimicrobial agents were added by weight/volume percent to the media. The purity of the composition, 99% for K-9-DA, was taken into account. The pH adjustments to 7.5 and 8.5 were done with 50% potassium hydroxide. Filter sterilization was used instead of autoclaving to prevent adverse chemical reactions at higher pH and temperature. The target for initial cell density was 10^5 to 10^6 cfu/ml. According to the McFarland standard, 0.01 OD600 is equivalent to approximately 10^8 cfu/ml. To achieve the proper dilution, 30 μl of overnight culture diluted to 0.01 OD600 was added to the 3 ml of media in each tube. […] OD600 readings were taken at 0, 19, 25.5, 42.5 and 49 hours. […]

[2] = test system: Serratia marcescens ATCC 990; experiment: Growth inhibition in MRS medium at various pH levels (OD600); type: cell-based; settings: 0.1% w/v (as 9DA)
Protocol: as §1, §2, §3
(§4) The selected organisms were incubated overnight in 5 ml of MRS medium at 35° C. and 250 rpm. MRS media with K-9-DA were prepared, along with a control of straight media (no antimicrobial added). The antimicrobial agents were added by weight/volume percent to the media. The purity of the composition, 99% for K-9-DA, was taken into account. The pH adjustments to 7.5 and 8.5 were done with 50% potassium hydroxide. Filter sterilization was used instead of autoclaving to prevent adverse chemical reactions at higher pH and temperature. The target for initial cell density was 10^5 to 10^6 cfu/ml. According to the McFarland standard, 0.01 OD600 is equivalent to approximately 10^8 cfu/ml. To achieve the proper dilution, 30 μl of overnight culture diluted to 0.01 OD600 was added to the 3 ml of media in each tube. The tubes were incubated at 35° C. with the exception of Pseudomonas strains which were incubated at 30° C. Treatments were all done in duplicate. All strains were shaken at 250 rpm. OD600 readings were taken at 0, 19, 25.5, 42.5 and 49 hours.
(§5) “Percent reduction in growth vs. control” was defined as (1−abs. of treatment/abs. of control)×100.

[3] = test system: Bacillus cereus ATCC 14579; experiment: as above; type: cell-based; settings: 0.1% w/v (as 9DA)
Protocol: as §1, §2, §3, §4, §5

[4] = test system: organisms of Table 14 with the exception of Serratia marcescens, Bacillus licheniformis, and Lactobacillus casei; experiment: Growth inhibition in MRS medium (OD600), organisms of Table 14 except Serratia marcescens, Bacillus licheniformis, Lactobacillus casei; type: cell-based; settings: all concentrations tested
Protocol: (§6) Efficacy of potassium salts of 9-DA were determined through incubation of the following organisms in the presence of varying concentrations of the potassium salt: Serratia marcescens ATCC 990, Pseudomonas straminea ATCC 33636, Bacillus subtilis ATCC 6051, Bacillus licheniformis ATCC 14580, Bacillus cereus ATCC 14579, Pediococcus acidilactici ATCC 8042, and Lactobacillus casei ATCC 334.
as §2
(§7) The efficacy of different levels of potassium salts of 9-DA (K-9-DA) was tested depending on the organism to inhibit the growth of various microorganisms indicated above.
The selected organisms were incubated overnight in 5 ml of MRS medium at 35° C. and 250 rpm. MRS media with K-9-DA were prepared, along with a control of straight media (no antimicrobial added). The concentrated antimicrobial agents were diluted with the appropriate media required for the respective microorganisms, to reach the required concentrations for the studies as indicated below. The antimicrobial agents were added by weight/volume percent on an ‘as 9-DA’ basis to the media. The purity of the antimicrobial agent (99% for K-9-DA) was taken into account. The pH of the medium was not adjusted. […] OD600 readings were taken at 0, 4, 17, 23 and 47 hours. […]

[5] = test system: Pseudomonas straminea ATCC 33636; experiment: Growth inhibition in MRS medium (OD600); type: cell-based; settings: n = 2
Protocol: as §6, §2, §7
(§8) The selected organisms were incubated overnight in 5 ml of MRS medium at 35° C. and 250 rpm. MRS media with K-9-DA were prepared, along with a control of straight media (no antimicrobial added). The concentrated antimicrobial agents were diluted with the appropriate media required for the respective microorganisms, to reach the required concentrations for the studies as indicated below. The antimicrobial agents were added by weight/volume percent on an ‘as 9-DA’ basis to the media. The purity of the antimicrobial agent (99% for K-9-DA) was taken into account. The pH of the medium was not adjusted. The target for initial cell density was 10^5 to 10^6 cfu/ml. According to the McFarland standard, 0.01 OD600 is equivalent to approximately 10^8 cfu/ml. To achieve the proper dilution, 30 μl of overnight culture diluted to 0.01 OD600 was added to the 3 ml of media in each tube. The tubes were incubated at 35° C. Treatments were all done in duplicate. All strains were shaken at 250 rpm, with the exception of Lactobacillus (because it is anaerobic). OD600 readings were taken at 0, 4, 17, 23 and 47 hours.
(§9) “Percent reduction in comparison with control” was defined as (1−abs. of treatment/abs. of control)×100.

[6] = test system: Serratia marcescens ATCC 990; experiment: Growth inhibition in MRS medium (OD600); type: cell-based; settings: n = 2
Protocol: as §6, §2, §7, §8, §9

[7] = test system: Bacillus cereus ATCC 14579; experiment: Growth inhibition in MRS medium (OD600); type: cell-based; settings: n = 2
Protocol: as §6, §2, §7, §8, §9

[8] = test system: Lactobacillus casei ATCC 334; experiment: Growth inhibition in MRS medium (OD600); type: cell-based; settings: n = 2
Protocol: as §6, §2, §7, §8, §9

[9] = test system: Pediococcus acidilactici ATCC 8042; experiment: Growth inhibition in MRS medium (OD600); type: cell-based; settings: n = 2
Protocol: as §6, §2, §7, §8, §9

[10] = test system: Bacillus subtilis ATCC 6051; experiment: Growth inhibition in MRS medium (OD600); type: cell-based; settings: n = 2
Protocol: as §6, §2, §7, §8, §9

[11] = test system: Bacillus licheniformis ATCC 14580; experiment: Growth inhibition in MRS medium (OD600); type: cell-based; settings: n = 2
Protocol: as §6, §2, §7, §8, §9

[12] = Solubility studies in water and isopropanol (GC/FID); type: physicochemical; settings: mg 9-decenoic acid/g solvent
Protocol: For the antimicrobial agents of Formulae I-III, the solubility in an aqueous and an alcohol environment was studied. Solubility studies were carried out with the sodium (Na) and potassium (K) salts of 9-decenoic acid in water and isopropanol (IPA). Six samples were analyzed. The samples were as follows: Na salt in water, Na salt in IPA, K salt in water, K salt in IPA, 9-decenoic acid (protonated) in water, 9-decenoic acid (protonated) in IPA. For the protonated form of the acids, the samples were acidified and diluted in IPA and subjected to analysis by gas chromatography/flame ionization detector (GC/FID). The same procedure was followed for the Na and K salts in IPA. For the Na and K salts in water, the samples were acidified and then extracted with petroleum ether. The petroleum ether was then evaporated, and the samples were reconstituted in IPA, acidified and subjected to analysis by GC/FID. Concentrations were calculated by comparing the peak area of the sample to a calibration table of 9-decenoic acid. The calibration curve was linear from 1 mg/g to 500 mg/g. Results are reported in mg/g (mg 9-decenoic acid/g solvent).

[13] = test system: Pseudomonas straminea; experiment: Growth inhibition in MRS medium at various pH levels (OD600); type: cell-based; settings: 0.075% w/v (as 9DA)

C=CCCCCCCCC(=O)O.[K] [Potassium-9 Decenoic Acid]
reduction in growth ([1]; pH 7.5, concentrations of Tables 15-17): 96%
reduction in growth ([1]; pH 8.5, concentrations of Tables 15-17): 94%
% reduction in growth vs. control ([2]; Non-pH adjusted (6.75)): 98.5%
% reduction in growth vs. control ([2]; pH 7.5): 18.5%
% reduction in growth vs. control ([2]; pH 8.5): 37.4%
% reduction in growth vs. control ([3]; Non-pH adjusted (6.75)): 96.5%
% reduction in growth vs. control ([3]; pH 7.5): 96.2%
% reduction in growth vs. control ([3]; pH 8.5): 93.9%
reduction in growth when compared to controls [4]: ≥ 96%
% reduction in growth vs. control ([5]; 0.05% w/v 9DA from K9DA): 96.9%
Abs at 600 nm ([5]; 0.05% w/v 9DA from K9DA): 0.190
% reduction in growth vs. control ([5]; 0.075% w/v 9DA from K9DA): 97.3%
Abs at 600 nm ([5]; 0.075% w/v 9DA from K9DA): 0.165
% reduction in growth vs. control ([6]; 0.075% w/v 9DA from K9DA): 97.7%
Abs at 600 nm ([6]; 0.075% w/v 9DA from K9DA): 0.181
% reduction in growth vs. control ([6]; 0.1% w/v 9DA from K9DA): 94.6%
Abs at 600 nm ([6]; 0.1% w/v 9DA from K9DA): 0.412
% reduction in growth vs. control ([7]; 0.075% w/v 9DA from K9DA): 98.4%
Abs at 600 nm ([7]; 0.075% w/v 9DA from K9DA): 0.093
% reduction in growth vs. control ([7]; 0.1% w/v 9DA from K9DA): 96.2%
Abs at 600 nm ([7]; 0.1% w/v 9DA from K9DA): 0.216
% reduction in growth vs. control ([8]; 0.05% w/v 9DA from K9DA): 93.3%
Abs at 600 nm ([8]; 0.05% w/v 9DA from K9DA): 0.461
% reduction in growth vs. control ([8]; 0.075% w/v 9DA from K9DA): 96.9%
Abs at 600 nm ([8]; 0.075% w/v 9DA from K9DA): 0.211
% reduction in growth vs. control ([9]; 0.025% w/v 9DA from K9DA): 100.0%
Abs at 600 nm ([9]; 0.025% w/v 9DA from K9DA): −0.038
% reduction in growth vs. control ([9]; 0.05% w/v 9DA from K9DA): 96.1%
Abs at 600 nm ([9]; 0.05% w/v 9DA from K9DA): 0.224
% reduction in growth vs. control ([10]; 0.05% w/v 9DA from K9DA): 97.3%
Abs at 600 nm ([10]; 0.05% w/v 9DA from K9DA): 0.157
% reduction in growth vs. control ([10]; 0.075% w/v 9DA from K9DA): 98.4%
Abs at 600 nm ([10]; 0.075% w/v 9DA from K9DA): 0.094
% reduction in growth vs. control ([11]; 0.075% w/v 9DA from K9DA): 88.6%
Abs at 600 nm ([11]; 0.075% w/v 9DA from K9DA): 0.300
% reduction in growth vs. control ([11]; 0.1% w/v 9DA from K9DA): 99.1%
Abs at 600 nm ([11]; 0.1% w/v 9DA from K9DA): 0.023
Solubility, Concentration ([12]; in isopropanol): 10 mg/g
Solubility, Concentration ([12]; in water): 240 mg/g
% reduction in growth vs. control ([13]; Non-pH adjusted (6.75)): 98.6%
% reduction in growth vs. control ([13]; pH 7.5): 96.2%
% reduction in growth vs. control ([13]; pH 8.5): 93.9%
